IC50 data for twelve compounds are collected here from ChEMBL document CHEMBL1133345, “The synthesis and evaluation of 2-substituted-7-(alkylidene)cephalosporin sulfones as beta-lactamase inhibitors” (Bioorg Med Chem Lett, 2000).

Assay [1] concerns the target Beta-lactamase class C (Enterobacter cloacae, UniProt Q59401). The experiment in a line: Inhibition of Class C beta-lactamase from Enterobacter cloacae strain P99.
Assay [2] concerns the target Beta-lactamase TEM (Escherichia coli, UniProt P62593). The experiment in a line: The compound was evaluated for inhibition against Beta-lactamase TEM […].
The target of assay [3] is Beta-lactamase (Staphylococcus aureus, UniProt P00807). The experiment in a line: The compound was evaluated for inhibition against Beta-lactamase derived from Staphylococcus aureus.
Beta-lactamase, sequence (P00807 whole entry): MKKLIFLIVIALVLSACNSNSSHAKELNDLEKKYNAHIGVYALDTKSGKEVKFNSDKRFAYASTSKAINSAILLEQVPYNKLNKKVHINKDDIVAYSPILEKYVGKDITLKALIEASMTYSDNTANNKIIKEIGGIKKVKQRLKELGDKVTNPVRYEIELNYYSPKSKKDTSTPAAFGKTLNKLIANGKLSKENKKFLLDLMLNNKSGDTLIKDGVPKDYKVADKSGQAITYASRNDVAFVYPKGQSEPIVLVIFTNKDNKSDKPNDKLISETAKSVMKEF

Beta-lactamase TEM, sequence (P62593 whole entry): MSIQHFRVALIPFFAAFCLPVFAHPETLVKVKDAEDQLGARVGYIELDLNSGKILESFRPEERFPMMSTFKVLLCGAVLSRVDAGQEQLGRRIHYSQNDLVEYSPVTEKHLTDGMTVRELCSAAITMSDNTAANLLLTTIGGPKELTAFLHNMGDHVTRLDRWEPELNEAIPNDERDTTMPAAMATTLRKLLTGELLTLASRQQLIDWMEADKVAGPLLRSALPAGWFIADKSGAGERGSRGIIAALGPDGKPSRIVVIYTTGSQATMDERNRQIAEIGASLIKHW
Beta-lactamase class C, sequence (Q59401 whole entry): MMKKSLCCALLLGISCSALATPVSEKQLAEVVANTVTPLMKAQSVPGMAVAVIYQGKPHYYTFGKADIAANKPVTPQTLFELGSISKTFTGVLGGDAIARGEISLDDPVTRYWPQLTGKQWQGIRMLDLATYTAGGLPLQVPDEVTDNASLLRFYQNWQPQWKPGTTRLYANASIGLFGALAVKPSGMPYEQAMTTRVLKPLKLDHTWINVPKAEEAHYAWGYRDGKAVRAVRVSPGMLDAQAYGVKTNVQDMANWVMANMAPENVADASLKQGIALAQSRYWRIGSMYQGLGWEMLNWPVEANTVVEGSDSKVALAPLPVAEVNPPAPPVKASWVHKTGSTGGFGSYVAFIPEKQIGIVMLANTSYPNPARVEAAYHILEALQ

Consider `C=C1C(C)=C(C(=O)O)N2C(=O)/C(=C/C(=O)OC(C)(C)C)[C@H]2S1(=O)=O`, for which 48.6 µM corresponded to half-maximal inhibition in assay [1] (IC50).

`CC(=O)OCC1=C(C(=O)O)N2C(=O)/C(=C/C(=O)OC(C)(C)C)[C@H]2S(=O)(=O)C1`: the half-inhibitory concentration (IC50) came to 0.03 µM in assay [2], 977 µM in assay [3] and 6.56 µM in assay [1].

For `CC(=O)OCC1=C(C(=O)O)N2C(=O)/C(=C/c3ccccn3)[C@H]2S(=O)(=O)C1`, the IC50 in assay [2] came to 34.8 µM; in assay [3], 402 µM; in assay [1], 0.498 µM.

Take `CC1=C(C(=O)O)N2C(=O)/C(=C/c3ccccn3)[C@H]2S(=O)(=O)[C@@H]1Sc1nnnn1C`: the figures for the IC50 in assay [2], in assay [3] and in assay [1] were 31.6 µM, 844 µM and 29 µM, respectively.

As for `C=C1C(C)=C(C(=O)O)N2C(=O)/C(=C/C(=O)O)[C@H]2S1(=O)=O`, the values for the IC50 in assay [2] and in assay [1] were 277 µM and 36.8 µM, respectively.

In the case of `C=C1C(COC(C)=O)=C(C(=O)O)N2C(=O)/C(=C/c3ccccn3)[C@H]2S1(=O)=O`, the IC50 in assay [3] is 733 µM; in assay [1], 0.165 µM.

For `CSC(SC)=C1C(C)=C(C(=O)O)N2C(=O)/C(=C/c3ccccn3)[C@H]2S1(=O)=O`, the results for the IC50 in assay [2] and in assay [1] were 173 µM and 0.51 µM, respectively.

Regarding `C=C1C(C)=C(C(=O)O)N2C(=O)/C(=C/c3ccccn3)[C@H]2S1(=O)=O`, the IC50 in assay [2] came to 91.1 µM; in assay [3], 1860 µM; in assay [1], 0.039 µM.

Take `CC1=C(C(=O)O)N2C(=O)/C(=C/c3ccccn3)[C@H]2S(=O)(=O)C1C` (stereo partly drawn): the figures for the IC50 in assay [2], in assay [3] and in assay [1] were 74.1 µM, 102 µM and 3.9 µM, respectively.

`C=C1C(COC(C)=O)=C(C(=O)O)N2C(=O)/C(=C/C(=O)O)[C@H]2S1(=O)=O`: the IC50 amounted to 498 µM in assay [2], 230 µM in assay [3] and 2.49 µM in assay [1].

`C=C1C(COC(C)=O)=C(C(=O)O)N2C(=O)/C(=C/C(=O)OC(C)(C)C)[C@H]2S1(=O)=O` gave an IC50 in assay [1] of 1.55 µM.

For the compound `C=C1C(CSc2nnnn2C)=C(C(=O)O)N2C(=O)/C(=C/C(=O)OC(C)(C)C)[C@H]2S1(=O)=O`, the IC50 was determined as 1.13 µM in assay [2] and 2.38 µM in assay [1].

What is called IC50 is the concentration needed to halve the response being measured. A lower IC50 goes with greater potency.
